Test results reported in US20250288571A1 (Nested Therapeutics, Inc., priority 2024, published 2025).

Columns and labels:
pERK Thr202/Tyr204 [1] = test: pERK HTRF detection of pERK Thr202/Tyr204, A549 cells; type: cell-based; conditions: Homo sapiens, 2 h compound
Experimental: (§1) pERK: Detection of pERK Thr202/Tyr204
(§2) A549 cultured in F-12K/10% FBS were seeded at 10000 cells/well, and HCT116 cultured in McCoy's 5A/10% FBS were seeded at 15000 cells/well cells into Corning 384-well plates, respectively. Cells were incubated overnight in a TC incubator. Compounds were serially diluted and added to cells for 2 h in a TC incubator. Cells were then lysed according to manufacture protocol (Cisbio CAT #: 64AERPEG). Cell lysate was mixed with phospho-ERK (Thr202/Tyr204) antibody solution at 5:1 (v:v). Lysate and antibody mixture were incubated overnight at room temperature. HTRF signal was read at two different wavelengths (665 nm and 620 nm) on a compatible HTRF reader.

pMEK [2] = test: pMEK AlphaLISA (MEK1 pS218/222), HCT116 cells, EGF stimulated; type: cell-based; conditions: Homo sapiens, HCT-116, 2 h compound, EGF 30 ng/ml 15 min
Experimental: (§3) Determination of pMEK IC50s
(§4) A549 cells were cultured in F12K/10% FBS media (ATCC CAT #21127022) and were seeded at 10000 cells/well and HCT116 cells were cultured in McCoy's 5A/10% FBS media (Gibco Cat #30-2007) were seeded at 15000 cells/well in 384 microplates (Corning CAT #3765). Cells were incubated overnight in a TC incubator. Compounds were serially diluted and added to cells for 2 h in a TC incubator. At the end of the 2 h EGF (R&D Systems 236-EG-200) was added at a final EGF concentration of 30 ng/ml and incubated for 15 minutes at 37° C. in a TC incubator. AlphaLisa (Perkin Elmer) was performed according to manufacturer's instructions (Perkin Elmer CAT #ALPHA.SF ULTRA MEK1 PS218/222). The percent (%) inhibition at each concentration of compound is calculated based on and relative to the AlphaLISA signal in the HPE and ZPE control wells contained within each assay plate. The ZPE control wells contain cells and DMSO as 0% inhibition, and the HPE control wells only contain cells and control compound (Sellekchem Staurosporin CAT #S1421) as 100% inhibition.

pMEK [3] = test: pMEK AlphaLISA (MEK1 pS218/222), A549 cells, EGF stimulated; type: cell-based; conditions: Homo sapiens, 2 h compound, EGF 30 ng/ml 15 min
Experimental: as §3, §4

pERK Thr202/Tyr204 [4] = test: pERK HTRF detection of pERK Thr202/Tyr204, HCT116 cells; type: cell-based; conditions: Homo sapiens, HCT-116, 2 h compound
Experimental: as §1, §2

HCT116 cells = test: HCT116 Cell Titer Glow assay (CTG); conditions: Homo sapiens, HCT-116, 72 h; for IC50: read-out: CTG IC50 (nM) Cell Line: HCT116.20
Experimental: (§5) HCT116 and IPC298 Cell Titer Glow Assay (CTG)
(§6) HCT116 cells and IPC298 cells were diluted with culture medium to the desired density 500 cells/well and 40 μL of cell suspension were added into each well of 384-well cell culture plate. […] The plates were covered and stored at room temperature for 30 minutes without shaking and then the plates were transferred into a 37° C. 5% CO2 incubator overnight.
(§7) A 10 mM solution in dimethyl sulfoxide (DMSO) was prepared for each test compound. A 3 fold, 10-point dilution was prepared from the stock solution. 40 nl of each solution in 100% DMSO was added to the 384-well plate and diluted to a final 0.1% DMSO final concentration. The plates were then incubated for 72 hours (for both cell lines) at 37° C.
(§8) CellTiter-Glo® 2.0 Reagent (Promega, G9242) was removed from the refrigerator and equilibrated at room temperature (23° C.) for 60 minutes. The plates were then removed from the incubator and allowed to equilibrate to room temperature. 30 μL CellTiter-Glo® 2.0 Reagent were added to the assay plates, and spun 1 min/1000 rpm. The plates were allowed to stand for about 20 minutes before being read on Envision using a standard luminescence readout. DMSO was employed as negative control (High control, HC) and 1 uM Staurosporine was employed as positive control (Low control, LC).
(§9) The percent (%) inhibition at each concentration of compound was calculated based on the signal in the negative and positive control wells contained within each assay plate.

IPC298 cells = test: IPC298 Cell Titer Glow assay (CTG); conditions: Homo sapiens, IPC-298, 72 h; for IC50: read-out: CTG IC50 (nM) Cell Line: IPC298.2
Experimental: as §5, §6, §7, §8, §9

Row | SMILES | IC50 (pERK Thr202/Tyr204 [1]) [nM] | IC50 (pMEK [2]) [nM] | IC50 (pMEK [3]) [nM] | IC50 (pERK Thr202/Tyr204 [4]) [nM] | IC50 (HCT116 cells) [nM] | IC50 (IPC298 cells) [nM] | IC50 (pERK Thr202/Tyr204 [4]; numeric value) [nM] | viability at 100 µM (IPC298 cells; read-out: CTG % cell viability 100 uM IPC298.2, IPC298 cells, 72 hours, 100 uM, percent cells remaining after treatment) [%] | viability at 1000 µM (HCT116 cells; read-out: CTG % cell viability 1000 uM HCT116.20, HCT116 cells, 72 hours, 1000 uM, percent cells remaining after treatment) [%]
1 | CC(=O)Nc1nccc(Cc2cncc(Nc3ccc(Br)cc3F)c2C)c1F [Example 3, N-[4-({5-[(4-bromo-2-fluorophenyl)amino]-4-methylpyridin-3-yl}methyl)-3-fluoropyridin-2-yl]acetamide] | < 10 | 10 to 100 | 10 to 100 | < 10 |  |  |  |  | 
2 | COC(=O)Nc1nccc(Cc2cncc(Nc3ccc(Br)cc3F)c2C)c1F [Example 4, methyl N-[4-({5-[(4-bromo-2-fluorophenyl)amino]-4-methylpyridin-3-yl}methyl)-3-fluoropyridin-2-yl]carbamate] | 10 to 100 | 10 to 100 | 10 to 100 | 10 to 100 |  |  |  |  | 
3 | CNS(=O)(=O)Nc1nccc(Cc2cncc(Nc3ccc(Cl)cc3F)c2C)c1F [Example 6, N-(4-chloro-2-fluorophenyl)-5-({3-fluoro-2-[(methylsulfamoyl)amino]pyridin-4-yl}methyl)-4-methylpyridin-3-amine] | < 10 | < 10 | < 10 | < 10 | 10 to 100 |  |  |  | 
4 | Cc1c(Cc2ccnc(S(C)(=O)=O)c2F)cncc1Nc1ccc(Br)cc1F [Example 9, N-(4-bromo-2-fluorophenyl)-5-[(3-fluoro-2-methanesulfonylpyridin-4-yl)methyl]-4-methylpyridin-3-amine] | < 10 | 10 to 100 | < 10 | < 10 |  |  |  |  | 
5 | CNC(=O)Nc1nccc(Cc2cncc(Nc3ccc(Br)cc3F)c2C)c1F [Example 12, 1-[4-({5-[(4-bromo-2-fluorophenyl)amino]-4-methylpyridin-3-yl}methyl)-3-fluoropyridin-2-yl]-3-methylurea] | < 10 | < 10 | < 10 | < 10 |  |  |  |  | 
6 | CNS(=O)(=O)Nc1nccc(Cc2cncc(Nc3ccc(Cl)cc3F)c2OC)c1F [Example 37, N-(4-chloro-2-fluorophenyl)-5-({3-fluoro-2-[(methylsulfamoyl)amino]pyridin-4-yl}methyl)-4-methoxypyridin-3-amine] |  | < 10 | < 10 |  | 10 to 100 | < 10 | 0.362 |  | 
7 | CNS(=O)(=O)Nc1nccc(Cc2cncc(Nc3ccc(Cl)cc3F)c2C(F)(F)F)c1F [Example 38, N-(4-chloro-2-fluorophenyl)-5-({3-fluoro-2-[(methylsulfamoyl)amino]pyridin-4-yl}methyl)-4-(trifluoromethyl)pyridin-3-amine] |  | < 10 | < 10 |  | < 10 | < 10 | 0.241 |  | 
8 | CNS(=O)(=O)Nc1nccc(Cc2cncc(Nc3ccc(OC(F)(F)F)cc3F)c2C)c1F [Example 39] |  | < 10 | < 10 |  | 10 to 100 | < 10 | 0.354 |  | 
9 | CNS(=O)(=O)Nc1nccc(Cc2cncc(Oc3ccc(Cl)cc3F)n2)c1F [Example 40, 4-[[6-(4-chloro-2-fluoro-phenoxy)pyrazin-2-yl]methyl]-3-fluoro-N-(methylsulfamoyl)pyridin-2-amine] |  | > 1000 | > 1000 |  | > 1000 | > 1000 | > 1000 | 95.2 | 101
10 | CNS(=O)(=O)Nc1nccc(Cc2cncc(Nc3nc4c(cc3F)OCCO4)c2C)c1F [Example 41, 7-fluoro-N-[5-[[3-fluoro-2-(methylsulfamoylamino)-4-pyridyl]methyl]-4-methyl-3-pyridyl]-2,3-dihydro-[1,4]dioxino[2,3-b]pyridin-6-amine] |  | < 10 | < 10 |  | 100 to 500 | 10 to 100 | 2.32 |  | 
11 | CNS(=O)(=O)Nc1nccc(Cc2cncc(Nc3cc4c(cc3F)OCCO4)c2C)c1F [Example 42, 3-fluoro-4-[[5-[(6-fluoro-2,3-dihydro-1,4-benzodioxin-7-yl)amino]-4-methyl-3-pyridyl]methyl]-N-(methylsulfamoyl)pyridin-2-amine] |  | < 10 | < 10 |  | 100 to 500 | 10 to 100 | 0.791 |  | 
